Measured values reported in patent US20060252766A1, “Methods using a combination of 3-heteroaryl-2-indolinone and a cyclooxygenase-2 inhibitor for the treatment of neoplasia” (PFIZER INC, priority 2002, published 2006).
Values joined by “and” are separate entries in the source; they are usually repeats but may differ in a detail not shown here. Equal entries are not always repeated. Where two headings read alike, the source gives them in different places.

Columns and labels:
PDGFR [1] = assay: PDGF-induced BrdU incorporation assay in 3T3/EGFR cells; assay type: cell-based; details: Mitogenesis in 3T3/EGFR cells, read-out: PDGFR PDGF Ligand IC50
Description: Protocol • (1) 3T3 engineered cell line: 3T3/EGFRc7. • (2) Cells are seeded at 8000 cells/well in DMEM, 10% CS, 2 mM Gin in a 96 well plate. […] The negative control wells receive serum free DMEM with 0.1% BSA only; the positive control cells receive the ligand (PDGF) but no test compound. […] FixDenat solution is added (50 μl/well) and the plates are incubated at room temperature for 45 minutes on a plate shaker. • (7) The FixDenat solution is thoroughly removed by decanting and tapping the inverted plate on a paper towel. Milk is added (5% dehydrated milk in PBS, 200 μl/well) as a blocking solution and the plate is incubated for 30 minutes at room temperature on a plate shaker. • (8) The blocking solution is removed by decanting and the wells are washed once with PBS. Anti-BrdU-POD solution (1:100 dilution in PBS, 1% BSA) is added (100 μl/well) and the plate is incubated for 90 minutes at room temperature on a plate shaker. • (9) The antibody conjugate is thoroughly removed by decanting and rinsing the wells 5 times with PBS, and the plate is dried by inverting and tapping on a paper towel. • (10) TMB substrate solution is added (100 μl/well) and incubated for 20 minutes at room temperature on a plate shaker until color development is sufficient for photometric detection. • (11) The absorbance of the samples is measured at 410 nm (in “dual wavelength” mode with a filter reading at 490 nm, as a reference wavelength) on a Dynatech ELISA plate reader.

FGFR = FGFR (Mus musculus, UniProt P16092); assay: FGF ligand BrdU incorporation in 3T3/EGFR cells; assay type: cell-based; details: Mitogenesis in 3T3/EGFR cells
Chain of FGFR (P16092 22-822, change not shown): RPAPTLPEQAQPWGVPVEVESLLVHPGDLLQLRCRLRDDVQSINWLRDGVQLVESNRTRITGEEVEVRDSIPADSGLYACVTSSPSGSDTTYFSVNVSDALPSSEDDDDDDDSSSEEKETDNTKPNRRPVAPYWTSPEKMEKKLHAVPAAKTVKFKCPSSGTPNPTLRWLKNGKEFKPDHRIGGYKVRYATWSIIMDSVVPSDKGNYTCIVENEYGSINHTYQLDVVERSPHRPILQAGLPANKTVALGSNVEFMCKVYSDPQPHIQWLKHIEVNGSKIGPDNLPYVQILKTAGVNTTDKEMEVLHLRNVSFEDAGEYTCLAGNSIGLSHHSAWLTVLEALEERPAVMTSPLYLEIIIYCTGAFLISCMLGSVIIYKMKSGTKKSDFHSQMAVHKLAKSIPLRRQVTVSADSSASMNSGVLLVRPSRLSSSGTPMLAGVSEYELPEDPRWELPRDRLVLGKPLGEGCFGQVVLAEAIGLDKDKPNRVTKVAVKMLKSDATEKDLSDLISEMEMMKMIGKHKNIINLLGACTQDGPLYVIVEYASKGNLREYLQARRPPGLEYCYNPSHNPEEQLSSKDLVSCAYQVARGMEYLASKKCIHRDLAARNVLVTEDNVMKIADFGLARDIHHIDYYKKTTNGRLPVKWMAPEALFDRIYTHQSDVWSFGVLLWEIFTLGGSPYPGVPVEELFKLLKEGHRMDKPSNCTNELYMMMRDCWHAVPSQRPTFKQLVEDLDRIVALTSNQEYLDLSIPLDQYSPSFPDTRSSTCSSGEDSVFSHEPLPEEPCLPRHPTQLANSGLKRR

PDGFR [2] = target: PDGFR (Homo sapiens, UniProt P09619); assay: PDGF-R ELISA
Chain of PDGFR (Homo sapiens, UniProt P09619) (P09619 33-1106): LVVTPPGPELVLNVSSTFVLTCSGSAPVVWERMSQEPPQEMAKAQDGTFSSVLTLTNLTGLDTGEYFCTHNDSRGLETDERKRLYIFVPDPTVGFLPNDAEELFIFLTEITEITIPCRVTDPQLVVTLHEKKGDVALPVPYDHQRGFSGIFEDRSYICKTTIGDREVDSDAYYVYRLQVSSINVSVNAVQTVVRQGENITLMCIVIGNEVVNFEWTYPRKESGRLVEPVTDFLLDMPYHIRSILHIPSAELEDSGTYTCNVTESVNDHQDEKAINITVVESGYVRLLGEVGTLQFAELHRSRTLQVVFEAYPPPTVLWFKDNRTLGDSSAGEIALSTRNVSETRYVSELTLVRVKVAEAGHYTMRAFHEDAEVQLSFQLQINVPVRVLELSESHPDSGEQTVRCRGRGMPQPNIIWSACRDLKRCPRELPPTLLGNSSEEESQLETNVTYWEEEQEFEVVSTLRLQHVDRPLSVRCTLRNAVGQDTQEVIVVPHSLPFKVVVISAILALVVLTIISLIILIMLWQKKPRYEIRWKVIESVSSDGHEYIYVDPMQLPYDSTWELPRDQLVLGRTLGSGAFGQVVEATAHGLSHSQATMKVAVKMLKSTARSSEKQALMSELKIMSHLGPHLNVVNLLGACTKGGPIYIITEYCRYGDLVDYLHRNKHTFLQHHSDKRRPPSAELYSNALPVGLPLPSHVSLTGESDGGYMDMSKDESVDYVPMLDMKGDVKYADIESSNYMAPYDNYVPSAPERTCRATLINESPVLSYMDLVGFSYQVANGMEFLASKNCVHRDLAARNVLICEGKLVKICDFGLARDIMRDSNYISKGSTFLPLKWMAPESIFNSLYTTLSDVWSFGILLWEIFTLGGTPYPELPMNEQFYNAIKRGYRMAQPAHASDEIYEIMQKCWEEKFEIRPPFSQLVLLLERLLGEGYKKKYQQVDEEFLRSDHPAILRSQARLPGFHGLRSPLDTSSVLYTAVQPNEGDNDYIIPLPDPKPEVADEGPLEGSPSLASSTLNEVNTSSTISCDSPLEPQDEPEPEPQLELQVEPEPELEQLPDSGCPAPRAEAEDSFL
Description: All cell culture media, glutamine, and fetal bovine serum were purchased from Gibco Life Technologies (Grand Island, N.Y.) unless otherwise specified. […] All cell lines were routinely subcultured twice a week and were negative for mycoplasma as determined by the Mycotect method (Gibco).
For ELISA assays, cells (U1242, obtained from Joseph Schlessinger, NYU) were grown to 80-90% confluency in growth medium (MEM with 10% FBS, NEAA, 1 mM NaPyr and 2 mM GLN) and seeded in 96-well tissue culture plates in 0.5% serum at 25,000 to 30,000 cells per well. […] Lysates were incubated with shaking for 1 hour at room temperature. The plates were washed with TBST four times and then incubated with polyclonal anti-phosphotyrosine antibody at room temperature for 30 minutes. Excess anti-phosphotyrosine antibody was removed by rinsing the plate with TBST four times. Goat anti-rabbit IgG antibody was added to the ELISA plate for 30 min at room temperature followed by rinsing with TBST four more times. […] Absorbance at 410 nm with a reference wavelength of 630 nm was recorded about 15 to 30 min after ABTS addition.

[3] = test system: 1483 human head and neck squamous cell carcinoma (HNSCC) xenograft; assay: HN1483 tumor model: paw tumor volume of treated mice; assay type: in vivo, nude mice; details: for Tumor vol. Average: group average; for Paw volume, paw / Tumor vol.: individual mice
[4] = SU-5416/50 mgkd, Day 17 Mar. 16, 2001
[5] = SU-5416/50 mgkd, Day 21 Mar. 20, 2001
[6] = SU-5416/50 mgkd, Day 24 Mar. 23, 2001
[7] = SU-5416/50 mgkd, Day 31 Apr. 2, 2001
[8] = SU-5416/50 mgkd, Day 31 Mar. 30, 2001

Molecule `Cc1c(CCC(=O)O)c[nH]c1C=C1C(=O)Nc2ccccc21` [SU5402, 3-[(3-(2-carboxyethyl)-4-methylpyrrol-5-yl)methylene]-2-indolinone] has an IC50 (PDGFR [1]) of 50 µM and an IC50 (FGFR) of 40 µM.

`Cc1c[nH]c(C=C2C(=O)Nc3ccccc32)c1C` [SU5406, 3-[(3,4-Dimethylpyrrol-2-yl)methylene]-2-indolinone] gave an IC50 (PDGFR [1]) of 5.2 µM.

For `COC(=O)CCc1c(C)c[nH]c1C=C1C(=O)Nc2ccccc21` [SU5407, 3-{[4-(2-methoxycarbonylethyl)-3-methylpyrrol-5-yl]methylene}-2-indolinone], the IC50 (PDGFR [2]) was 53.7 µM.

With `Cc1cc(C)c(C=C2C(=O)Nc3ccccc32)[nH]1` [SU5416, 3-[(2,4-Dimethylpyrrol-5-yl)methylene]-2-indolinone] the “Tumor vol. Average” value ([3]; SU5416 25 mg/kg/day s.c. group, Day 7 Mar. 3, 2001 (before start of dosing)) was 0.14, the “Paw volume, paw” value ([3]; SU5416 25 mg/kg/day s.c. group, Day 7 Mar. 3, 2001 (before start of dosing), 25 mg/kg/day) was 0.26 (3×) and 0.28 and 0.27 (2×) and 0.24 and 0.23 and the Tumor vol. ([3]; SU5416 25 mg/kg/day s.c. group, Day 7 Mar. 3, 2001 (before start of dosing), paw minus 0.10, 25 mg/kg/day) was 0.16 (2×) and 0.17 (3×) and 0.18 and 0.14 and 0.13. For the same molecule, the “Tumor vol. Average” value ([3]; SU5416 25 mg/kg/day s.c., Day 14 Mar. 13, 2001) was 0.18, the “Paw volume, paw” value ([3]; SU5416 25 mg/kg/day s.c., Day 14 Mar. 13, 2001, 25 mg/kg/day) was 0.29 (3×) and 0.28 (2×) and 0.27 and 0.26 and 0.24 and the Tumor vol. ([3]; SU5416 25 mg/kg/day s.c., Day 14 Mar. 13, 2001, paw minus BKG. 0.10, 25 mg/kg/day) was 0.19 (3×) and 0.18 and 0.17 and 0.16 (2×) and 0.14. For the same molecule, the “Tumor vol. Average” value ([3]; SU5416 25 mg/kg/day s.c., Day 17 Mar. 16, 2001) was 0.21, the “Paw volume, paw” value ([3]; SU5416 25 mg/kg/day s.c., Day 17 Mar. 16, 2001, 25 mg/kg/day) was 0.37 (2×) and 0.33 and 0.29 and 0.28 (2×) and 0.36 and 0.23 and the Tumor vol. ([3]; SU5416 25 mg/kg/day s.c., Day 17 Mar. 16, 2001, paw minus BKG. 0.10, 25 mg/kg/day) was 0.27 (2×) and 0.23 and 0.19 and 0.18 (2×) and 0.26 and 0.13. The “Tumor vol. Average” value ([3]; SU5416 25 mg/kg/day s.c., Day 21 Mar. 20, 2001) was 0.34, the “Paw volume, paw” value ([3]; SU5416 25 mg/kg/day s.c., Day 21 Mar. 20, 2001, 25 mg/kg/day) was 0.55 and 0.49 and 0.37 and 0.34 and 0.4 and 0.58 and 0.56 and 0.24 and the Tumor vol. ([3]; SU5416 25 mg/kg/day s.c., Day 21 Mar. 20, 2001, paw minus BKG. 0.10, 25 mg/kg/day) was 0.45 and 0.39 and 0.27 and 0.24 and 0.30 and 0.48 and 0.46 and 0.14. For the same molecule, the “Tumor vol. Average” value ([3]; SU5416 25 mg/kg/day s.c., Day 24 Mar. 23, 2001) was 0.39, the “Paw volume, paw” value ([3]; SU5416 25 mg/kg/day s.c., Day 24 Mar. 23, 2001, 25 mg/kg/day) was 0.59 and 0.8 and 0.37 and 0.4 and 0.49 and 0.65 and 0.61 and 0.22 and the Tumor vol. ([3]; SU5416 25 mg/kg/day s.c., Day 24 Mar. 23, 2001, paw minus BKG. 0.10, 25 mg/kg/day) was 0.49 and 0.50 and 0.27 and 0.30 (2×) and 0.55 and 0.51 and 0.12. The “Tumor vol. Average” value ([3]; SU5416 25 mg/kg/day s.c., Day 31 Apr. 2, 2001) was 0.87, the “Paw volume, paw” value ([3]; SU5416 25 mg/kg/day s.c., Day 31 Apr. 2, 2001, 25 mg/kg/day) was 0.82 and 0.79 and 0.57 and 0.6 and 0.66 and 0.98 and 0.75 and 0.21 and the Tumor vol. ([3]; SU5416 25 mg/kg/day s.c., Day 31 Apr. 2, 2001, paw minus BKG. 0.10, 25 mg/kg/day) was 0.72 and 0.69 and 0.47 and 0.50 and 0.56 and 0.68 and 0.65 and 0.11. The “Tumor vol. Average” value ([3]; SU5416 25 mg/kg/day s.c., Day 31 Mar. 30, 2001) was 0.56, the “Paw volume, paw” value ([3]; SU5416 25 mg/kg/day s.c., Day 31 Mar. 30, 2001, 25 mg/kg/day) was 0.84 and 0.5 and 0.71 and 0.23 and 0.73 and 0.81 and 0.54 and 0.56 and the Tumor vol. ([3]; SU5416 25 mg/kg/day s.c., Day 31 Mar. 30, 2001, paw minus BKG. 0.10, 25 mg/kg/day) was 0.74 and 0.70 and 0.61 and 0.13 and 0.63 and 0.71 and 0.44 and 0.46. For the same molecule, the “Tumor vol. Average” value ([3]; SU5416 25 mg/kg/day s.c., Start dosing Day 10 Mar. 9, 2001) was 0.16, the “Paw volume, paw” value ([3]; SU5416 25 mg/kg/day s.c., Start dosing Day 10 Mar. 9, 2001, 25 mg/kg/day) was 0.3 and 0.25 and 0.23 and 0.26 and 0.27 and 0.29 and 0.24 (2×) and the Tumor vol. ([3]; SU5416 25 mg/kg/day s.c., Start dosing Day 10 Mar. 9, 2001, paw minus BKG. 0.10, 25 mg/kg/day) was 0.20 and 0.15 and 0.13 and 0.10 and 0.17 and 0.19 and 0.14 (2×). The “Paw volume, paw” value ([3]; SU-5416/50 mgkd, Day 14 Mar. 13, 2001) was 0.29 and 0.22 and 0.32 and 0.27 (2×) and 0.24 and 0.26 and 0.21, the “Tumor vol. Average” value [3, 4] was 0.19 and the “Paw volume, paw” value [3, 4] was 0.24 and 0.27 and 0.2 and 0.3 and 0.32 and 0.22 and 0.39 and 0.34. The Tumor vol. ([3]; SU-5416/50 mgkd, Day 17 Mar. 16, 2001, paw minus BKG. 0.10) was 0.14 and 0.17 and 0.10 and 0.20 and 0.22 and 0.12 and 0.29 and 0.24, the “Tumor vol. Average” value [3, 5] was 0.27 and the “Paw volume, paw” value [3, 5] was 0.27 and 0.36 and 0.19 and 0.31 and 0.44 and 0.22 and 0.63 and 0.48. The Tumor vol. ([3]; SU-5416/50 mgkd, Day 21 Mar. 20, 2001, paw minus BKG. 0.10) was 0.17 and 0.28 and 0.09 and 0.21 and 0.34 and 0.12 and 0.53 and 0.38, the “Tumor vol. Average” value [3, 6] was 0.30 and the “Paw volume, paw” value [3, 6] was 0.25 and 0.46 and 0.19 and 0.28. For the same molecule, the Tumor vol. ([3]; SU-5416/50 mgkd, Day 24 Mar. 23, 2001, paw minus BKG. 0.10) was 0.15 and 0.36 and 0.09 and 0.18 and 0.42 and 0.08 and 0.64, the “Tumor vol. Average” value [3, 7] was 0.34 and the “Paw volume, paw” value [3, 7] was 0.18 and 0.53 and 0.15 and 0.25. For the same molecule, the Tumor vol. ([3]; SU-5416/50 mgkd, Day 31 Apr. 2, 2001, paw minus BKG. 0.10) was 0.08 (2×) and 0.43 and 0.05 and 0.15 and 0.59, the “Tumor vol. Average” value [3, 8] was 0.36 and the “Paw volume, paw” value [3, 8] was 0.24 and 0.6 and 0.18 and 0.21. For the same molecule, the Tumor vol. ([3]; SU-5416/50 mgkd, Day 31 Mar. 30, 2001, paw minus BKG. 0.10) was 0.14 (2×) and 0.50 and 0.08 and 0.11 and 0.73 and 0.62, the “body wt, individual mouse” value (group 2, SU5416 25 mg/kg/day s.c., Day 0 (day of injection), 25 mg/kg/day) was 31.93 and the “body wt, individual mouse” value (group 2, SU5416 25 mg/kg/day s.c., Day 7, 25 mg/kg/day) was 32.41 and 25.96. For the same molecule, the “body wt, individual mouse” value (group 2, SU5416 25 mg/kg/day s.c., Day 10, 25 mg/kg/day) was 32.36 and 25.96 and 31, the “body wt, individual mouse” value (group 2, SU5416 25 mg/kg/day s.c., Day 14, 25 mg/kg/day) was 28.02 and 32.11 and 23.91 and 21.18 and the “body wt, individual mouse” value (group 2, SU5416 25 mg/kg/day s.c., Day 17, 25 mg/kg/day) was 28.98 and 18.97. For the same molecule, the “body wt, individual mouse” value (group 2, SU5416 25 mg/kg/day s.c., Day 21, 25 mg/kg/day) was 22.29 and 18.32, the “body wt, individual mouse” value (group 2, SU5416 25 mg/kg/day s.c., Day 24, 25 mg/kg/day) was 24.83 and 21.3 and 22.29 and 22.93 and 18.15 and 29.02 and the “body wt, individual mouse” value (group 2, SU5416 25 mg/kg/day s.c., Day 31, 25 mg/kg/day) was 23.86 and 17.88 and 20.51. The “body wt, individual mouse” value (group 2, SU5416 25 mg/kg/day s.c., Day 35, 25 mg/kg/day) was 21.74 and 22.95 and 18.42, the “body wt, individual mouse” value (group 5, SU-5416 50 mpkd, Day 0 (day of injection)) was 26.04 and the “body wt, individual mouse” value (group 5, SU-5416 50 mpkd, Day 7) was 29.04. For the same molecule, the “body wt, individual mouse” value (group 5, SU-5416 50 mpkd, Day 21) was 25.96 and 24.96, the “body wt, individual mouse” value (group 5, SU-5416 50 mpkd, Day 24) was 22.85 and 24.01 and 24.79 and the “body wt, individual mouse” value (group 5, SU-5416 50 mpkd, Day 31) was 26.03.

Work on `CCc1ccc(C=C2C(=O)Nc3ccccc32)s1` [SU5451, 3-[(2-Ethylthien-5-yl)methylene]-2-indolinone] yielded an IC50 (PDGFR [1]) of 30 µM and an IC50 (FGFR) of 16 µM.

Molecule `CCOC(=O)CCc1c(C=C2C(=O)Nc3ccccc32)[nH]c(C(=O)OCC)c1CC(=O)OCC` [SU5465, 3-[(5-Ethoxycarbonyl-3-ethoxycarbonylethyl-4-ethoxylcarbonylmethylpyrrol-2-yl)methylene]-2-indolinone] has an IC50 (PDGFR [1]) of 40 µM and an IC50 (FGFR) of 25 µM.

`Cc1cnc(C=C2C(=O)Nc3ccccc32)s1` [SU5469, 3-[(5-Methylthiazol-2-yl)methylene]-2-indolinone] showed an IC50 (PDGFR [1]) of 4 µM and an IC50 (FGFR) of 15 µM.

Molecule `O=C1Nc2ccccc2C1=Cc1c(Br)cnn1Cc1ccc(Cl)cc1` [SU5475, 3-[(4-Bromo-1-(4-chlorobenzyl)pyrazol-5-yl)methylene]-2-indolinone] has an IC50 (PDGFR [1]) of 6.5 µM and an IC50 (FGFR) of 9 µM.
